Assay results as given in patent US10149809B2, “Skin aging inhibitor and concentrate of resveratrol 3-O-α-glucoside” (priority 2014, dated 2018).

What was measured:
[1] = Solubility in solvent containing 1,3-butylene glycol; type: physicochemical
Procedure: (§1) Approximately 40 mg each of resveratrol 3-O-α-glucoside, resveratrol (Tokyo Chemical Industry Co., Ltd.), and resveratrol 3-O-β-glucoside (Tokyo Chemical Industry Co., Ltd.) was weighed, approximately 70 mg of a solvent (whose composition is shown in Table 18) containing ethanol (Wako Pure Chemical Industries, Ltd.) was added thereto, and the mixture was soaked in a water bath at 25° C. under light-tight conditions, and incubated for 15 hours with occasional stirring. After 15 hours, each of the samples was filtered through a 0.45 μm centrifugal filter, and then the concentration of each of the components in the filtrate was analyzed using HPLC under the same conditions as those described in Production Example 1 above. The dissolved concentration (w/v %) at 25° C. was thus determined.
The solubility of resveratrol 3-O-α-glucoside was evaluated under the same conditions as those described in Example 18 above, except that a solvent (whose composition is shown in Table 21) containing 1,3-butylene glycol (Wako Pure Chemical Industries, Ltd.) was used.

sirtuin 1 gene = test: Sirtuin 1 gene expression-promoting effect (2); type: cell-based; conditions: normal human epidermal keratinocytes, 0.001 wt %, 33 hours, medium without hydrocortisone; control = 100%
Procedure: Normal human epidermal keratinocytes were seeded into 12-well culture plates at 5×10^4 cells per well. As the medium, EpiLife KG-2 medium supplemented with insulin, hEGF, hydrocortisone, anti-microbial agents, and BPE was used (basal medium), and the cells were preincubated in 5% CO2 at 37° C. for 48 hours. The medium was removed, and then replaced with a sample medium obtained by removing hydrocortisone from the above-described basal medium, and by supplementing the resulting medium with resveratrol 3-O-α-glucoside to a concentration of 0.001 wt %, and the cells were cultured in 5% CO2 at 37° C. For comparison, the cells were cultured under the same conditions as described above, except that resveratrol 3-O-α-glucoside in the sample medium was replaced by resveratrol 3-O-β-glucoside. After 33 hours of culture, total RNA was extracted from the cells, and the level of expression of the sirtuin 1 gene was quantified by real time PCR. As a control group, cells were cultured without resveratrol 3-O-α-glucoside or resveratrol 3-O-β-glucoside, and total RNA collected from these cells was used. Taking as 100% the level of expression of the sirtuin 1 gene for the control group, a relative ratio of the expression level of the sirtuin 1 gene for the resveratrol 3-O-α-glucoside- or resveratrol 3-O-β-glucoside-supplemented group (SIRT 1 gene expression ratio, %) was determined. […]

[2] = Solubility in solvent containing 1,2-pentanediol; type: physicochemical
Procedure: as §1
The solubility of resveratrol 3-O-α-glucoside was evaluated under the same conditions as those described in Example 18 above, except that a solvent (whose composition is shown in Table 23) containing 1,2-pentanediol (Kankosha Co., Ltd.) was used.

[3] = tested on: matrix metalloproteinase 9 (MMP9) gene; test: MMP9 gene expression in normal human dermal fibroblasts; type: cell-based; conditions: 0.001 wt %, 24 hours, control = 100%
Procedure: Using normal human dermal fibroblasts, the effect of resveratrol 3-O-α-glucoside on matrix metalloproteinase 1 (MMP1) and 9 (MMP9) genes in the dermis was investigated.
Normal human dermal fibroblasts were seeded into 12-well culture plates at 9×10^4 cells per well. As the medium, 10 vol % FBS (Fetal Bovine Serum)-containing DMEM medium (basal medium) was used, and the cells were preincubated in 5% CO2 at 37° C. for 24 hours. The medium was removed and then replaced with a basal medium supplemented with 0.001 wt % of resveratrol 3-O-α-glucoside, and the cells were cultured in 5% CO2 at 37° C. After 24 hours, total RNA was extracted from the cells, and the levels of expression of the MMP1 and MMP9 genes were quantified by real time PCR. As a control group, cells were cultured without resveratrol 3-O-α-glucoside, and total RNA collected from these cells was used.
Taking as 100% the level of expression of each of the MMP1 and MMP9 genes for the control group, a relative ratio of the expression level of each of the MMP1 and MMP9 genes for the resveratrol 3-O-α-glucoside-supplemented group (MMP1 and MMP9 gene expression ratios, %) was determined. In the measurement of the expression level of each of the MMP1 and MMP9 genes, GAPDH (glyceraldehyde 3-phosphate dehydrogenase) was used for internal standard correction.

[4] = Solubility in solvent containing ethanol; type: physicochemical
Procedure: as §1

[5] = tested on: skin model (MEL-312B; MatTek); test: Melanogenesis suppressing effect in skin model (amount of melanin, visual observation); type: cell-based; conditions: 16 days; for Relative Amount of Melanin: PBS control group = 100%; for Visual Observation: compared with PBS control group
Procedure: Resveratrol 3-O-α-glucoside, resveratrol (Tokyo Chemical Industry Co., Ltd.), or resveratrol 3-O-β-glucoside (Tokyo Chemical Industry Co., Ltd.) was prepared into a 0.2 wt % solution or suspension with the addition of PBS, and the resulting solution or suspension was used as a test substance. A skin model (MEL-312B; MatTek) was used, and 50 μL of the test substance was added to the horny layer side of the skin model and cultured in a special medium (EPI-100NMM-113; MatTek) at 37° C. for 16 days. On days 2, 4, 7, 9, 11, and 14, the medium and the test substance were replaced with fresh ones. As a control group, the same operation was performed using PBS instead of the test substance.
After 16 days of culture, the skin model was visually observed, and the amount of melanin in the skin model was evaluated. The amount of melanin was measured using the following method. Initially, the collected skin model was subjected to enzymatic degradation by proteinase-K, and was subsequently homogenated in PBS containing 1% triton X-100. Melanin was then extracted by washing with 10% TCA and ethanol. Next, the extracted melanin was dissolved in 0.5 mL of 1N-NaOH containing 10% DMSO at 80° C. for 2 hours, and the amount of melanin was quantified by measuring absorbance at 470 nm.
Resveratrol 3-O-α-glucoside was prepared into a 0.2 wt % solution, a 0.1 wt % solution, or a 0.01 wt % solution with the addition of PBS. The resulting solution was used as a test substance, and the melanogenesis suppressing effect was evaluated using the same method as that of Example 1 above. […]

tyrosinase = conditions: Non-Patent Literatures 1 and 2; cited from earlier work

OC[C@H]1O[C@H](Oc2cc(O)cc(C=Cc3ccc(O)cc3)c2)[C@H](O)[C@@H](O)[C@@H]1O [Resveratrol 3-O-α-Glucoside, resveratrol 3-O-α-glucoside]
dissolved concentration [1]: exceeded 20 w/v %
SIRT 1 Gene Expression Ratio (%) (sirtuin 1 gene): 141%
dissolved concentration [2]: exceeded 20 w/v %
MMP9 Gene Expression Ratio (%) [3]: 45%
dissolved concentration [4]: exceeded 30 w/v %
Dissolved Concentration (w/v %) at 25° C. ([4]; 15 h): 0.3 w/v %
Relative Amount of Melanin ([5]; 0.01 wt % in PBS): 88%
Visual Observation ([5]; 0.01 wt % in PBS): slightly whiter than the
Relative Amount of Melanin ([5]; 0.1 wt % in PBS): 67%
Relative Amount of Melanin ([5]; 0.2 wt % in PBS, 50 μL): 46%

OC[C@H]1O[C@@H](Oc2cc(O)cc(/C=C/c3ccc(O)cc3)c2)[C@H](O)[C@@H](O)[C@@H]1O [Resveratrol 3-O-β-Glucoside, resveratrol 3-O-β-glucoside]
Dissolved Concentration (w/v %) at 25° C. ([1]; 1,3-Butylene Glycol:Water 0:100 (weight ratio)): 0.04 w/v %
Dissolved Concentration (w/v %) at 25° C. ([1]; 1,3-Butylene Glycol:Water 5:95 (weight ratio)): 0.04 w/v %
Dissolved Concentration (w/v %) at 25° C. ([1]; 1,3-Butylene Glycol:Water 10:90 (weight ratio)): 0.07 w/v %
Dissolved Concentration (w/v %) at 25° C. ([1]; 1,3-Butylene Glycol:Water 15:85 (weight ratio)): 0.1 w/v %
Dissolved Concentration (w/v %) at 25° C. ([1]; 1,3-Butylene Glycol:Water 20:80 (weight ratio)): 0.2 w/v %
Dissolved Concentration (w/v %) at 25° C. ([1]; 1,3-Butylene Glycol:Water 25:75 (weight ratio)): 0.3 w/v %
Dissolved Concentration (w/v %) at 25° C. ([1]; 1,3-Butylene Glycol:Water 50:50 (weight ratio)): 2.8 w/v %
Dissolved Concentration (w/v %) at 25° C. ([1]; 1,3-Butylene Glycol:Water 75:25 (weight ratio)): 7.5 w/v %
Dissolved Concentration (w/v %) at 25° C. ([1]; 1,3-Butylene Glycol:Water 90:10 (weight ratio)): 9.7 w/v %
Dissolved Concentration (w/v %) at 25° C. ([1]; 1,3-Butylene Glycol:Water 100:0 (weight ratio)): 7.2 w/v %
SIRT 1 Gene Expression Ratio (%) (sirtuin 1 gene): 120%
Dissolved Concentration (w/v %) at 25° C. ([2]; 1,2-Pentanediol:Water 0:100 (weight ratio)): 0.04 w/v %
Dissolved Concentration (w/v %) at 25° C. ([2]; 1,2-Pentanediol:Water 10:90 (weight ratio)): 0.2 w/v %
Dissolved Concentration (w/v %) at 25° C. ([2]; 1,2-Pentanediol:Water 25:75 (weight ratio)): 2.3 w/v %
Dissolved Concentration (w/v %) at 25° C. ([2]; 1,2-Pentanediol:Water 50:50 (weight ratio)): 7.5 w/v %
Dissolved Concentration (w/v %) at 25° C. ([2]; 1,2-Pentanediol:Water 75:25 (weight ratio)): 11.3 w/v %
Dissolved Concentration (w/v %) at 25° C. ([2]; 1,2-Pentanediol:Water 90:10 (weight ratio)): 9.4 w/v %
Dissolved Concentration (w/v %) at 25° C. ([2]; 1,2-Pentanediol:Water 100:0 (weight ratio)): 4.6 w/v %
Dissolved Concentration (w/v %) at 25° C. ([4]; Ethanol:Water 0:100 (weight ratio), 15 hours): 0.04 w/v %
Dissolved Concentration (w/v %) at 25° C. ([4]; Ethanol:Water 5:95 (weight ratio), 15 hours): 0.05 w/v %
Dissolved Concentration (w/v %) at 25° C. ([4]; Ethanol:Water 10:90 (weight ratio), 15 hours): 0.06 w/v %
Dissolved Concentration (w/v %) at 25° C. ([4]; Ethanol:Water 15:85 (weight ratio), 15 hours): 0.1 w/v %
Dissolved Concentration (w/v %) at 25° C. ([4]; Ethanol:Water 20:80 (weight ratio), 15 hours): 0.2 w/v %
Dissolved Concentration (w/v %) at 25° C. ([4]; Ethanol:Water 25:75 (weight ratio), 15 hours): 0.4 w/v %
Dissolved Concentration (w/v %) at 25° C. ([4]; Ethanol:Water 30:70 (weight ratio), 15 hours): 0.7 w/v %
Dissolved Concentration (w/v %) at 25° C. ([4]; Ethanol:Water 40:60 (weight ratio), 15 hours): 2.6 w/v %
Dissolved Concentration (w/v %) at 25° C. ([4]; Ethanol:Water 50:50 (weight ratio), 15 hours): 5.3 w/v %
Dissolved Concentration (w/v %) at 25° C. ([4]; Ethanol:Water 75:25 (weight ratio), 15 hours): 13.8 w/v %
Dissolved Concentration (w/v %) at 25° C. ([4]; Ethanol:Water 90:10 (weight ratio), 15 hours): 7.3 w/v %
Dissolved Concentration (w/v %) at 25° C. ([4]; Ethanol:Water 100:0 (weight ratio), 15 hours): 2.4 w/v %
tyrosinase inhibitory effect compared to resveratrol (tyrosinase): inferior
Visual Observation ([5]; 0.2 wt % in PBS, 50 μL to horny layer side): the same as the control
Relative Amount of Melanin ([5]; 0.2 wt % in PBS, 50 μL): 79%
